Laboratory results published in patent US8999664B2, “Method of improving salmon meat color” (JX Nippon Oil & Energy Corporation, priority 2006, dated 2015).

Experiment: Carotenoid content in fish flesh of silver salmon by HPLC
Type: in vivo, Oncorhynchus kisutch
Settings: Fermented product division, silver salmon fish flesh, 6 months
Experimental: In the examples, the quantification of the carotenoid colorant was performed using high performance liquid chromatography (HPLC). Two columns of Wakosil-II 5 SIL-100 φ4.6×250 mm (produced by Wako Pure Chemical Industries, Ltd.) were connected to each other. An n-hexane:tetrahydrofuran:methanol (40:20:1) mixed solution was used as a mobile phase. A constant room temperature and a flow rate of 1.0 ml/min were used. The detection was performed at a wavelength of 470 nm. The feed or fish flesh was milled, and then the colorant was extracted with a tetrahydrofuran:methanol (20:1) mixed solution. The colorant was appropriately diluted with the mobile phase and analyzed by HPLC. 300 silver salmons (Oncorhynchus kisutch) each weighing about 200 g were cultivated as a test division of being fed with the above-described fermented product, and another 300 silver salmons each weighing about 200 g were cultivated as a test division of being fed with the above-described synthetic product. The salmons were fed in satiation in a marine fish pen for 6 months. After the 6 months of cultivating, 10 fish of each test division were weighed. […] The fish were immediately killed by cutting medulla and frozen for preservation. After being thawed, the fish flesh was milled by a coffee mill, and a part thereof was put into a polyethylene bag to measure the color tone thereof by a spectrometer CM-508i (Minolta). […] From a part of the milled fish flesh, the carotenoid colorant was extracted, and analyzed in terms of the content of each carotenoid compound by HPLC.

SMILES | Ratio to astaxanthin [%]
CC1=C(/C=C/C(C)=C/C=C/C(C)=C/C=C/C=C(C)/C=C/C=C(C)/C=C/C2=C(C)C(=O)[C@@H](O)CC2(C)C)C(C)(C)C[C@H](O)C1=O [Astaxanthin] | 100
CC1=C(/C=C/C(C)=C/C=C/C(C)=C/C=C/C=C(C)/C=C/C=C(C)/C=C/C2=C(C)C(=O)CCC2(C)C)C(C)(C)CCC1=O [Canthaxanthin] | 1.0

Same assay, conditions: Fermented product division, silver salmon, 6 months, average of 10 fish

SMILES | Content in fish flesh [mg/kg]
CC1=C(/C=C/C(C)=C/C=C/C(C)=C/C=C/C=C(C)/C=C/C=C(C)/C=C/C2=C(C)C(=O)CCC2(C)C)C(C)(C)CCC1=O [Canthaxanthin] | 0.1

Same assay, conditions: Synthetic product division, silver salmon, 6 months, average of 10 fish

SMILES | Content in fish flesh
CC1=C(/C=C/C(C)=C/C=C/C(C)=C/C=C/C=C(C)/C=C/C=C(C)/C=C/C2=C(C)C(=O)CCC2(C)C)C(C)(C)CCC1=O [Canthaxanthin] | 0.02 or less mg/kg

Same assay, conditions: silver salmon (Oncorhynchus kisutch), fish flesh, oral, 43.2 mg/kg feed, Fermented product division, silver salmon, average of 10 fish

SMILES | concentration at 6 months [ng/g]
CC1=C(/C=C/C(C)=C/C=C/C(C)=C/C=C/C=C(C)/C=C/C=C(C)/C=C/C2=C(C)C(=O)[C@@H](O)CC2(C)C)C(C)(C)C[C@H](O)C1=O [Astaxanthin] | 10400

Same assay, conditions: silver salmon (Oncorhynchus kisutch), fish flesh, oral, 44.3 mg/kg feed, Synthetic product division, silver salmon, average of 10 fish

SMILES | concentration at 6 months [ng/g]
CC1=C(/C=C/C(C)=C/C=C/C(C)=C/C=C/C=C(C)/C=C/C=C(C)/C=C/C2=C(C)C(=O)[C@@H](O)CC2(C)C)C(C)(C)C[C@H](O)C1=O [Astaxanthin] | 12700

Experiment: Carotenoid content in fish flesh of rainbow trout by HPLC
Type: in vivo, Oncorhynchus mykiss
Settings: Fermented product division, rainbow trout fish flesh, 3 months
Experimental: In the examples, the quantification of the carotenoid colorant was performed using high performance liquid chromatography (HPLC). Two columns of Wakosil-II 5 SIL-100 φ4.6×250 mm (produced by Wako Pure Chemical Industries, Ltd.) were connected to each other. An n-hexane:tetrahydrofuran:methanol (40:20:1) mixed solution was used as a mobile phase. A constant room temperature and a flow rate of 1.0 ml/min were used. The detection was performed at a wavelength of 470 nm. The feed or fish flesh was milled, and then the colorant was extracted with a tetrahydrofuran:methanol (20:1) mixed solution. The colorant was appropriately diluted with the mobile phase and analyzed by HPLC. 50 rainbow trouts (Oncorhynchus mykiss) each weighing about 100 g were cultivated in a water tank as a test division of being fed with the above-described fermented product, and another 50 rainbow trouts each weighing about 100 g were cultivated in a water tank as a test division of being fed with the above-described synthetic product. The trouts of each test division were fed in satiation in fresh water for 3 months. After the 3 months of cultivating, 12 fish of each test division were weighed. […] The fish were immediately killed by cutting medulla. […] After the measurement, the fish flesh was frozen for preservation. After being thawed, the fish flesh of the 12 fish of each test division was analyzed in terms of the content of each carotenoid compound.

SMILES | Ratio to astaxanthin [%]
CC1=C(/C=C/C(C)=C/C=C/C(C)=C/C=C/C=C(C)/C=C/C=C(C)/C=C/C2=C(C)C(=O)[C@@H](O)CC2(C)C)C(C)(C)C[C@H](O)C1=O [Astaxanthin] | 100
CC1=C(/C=C/C(C)=C/C=C/C(C)=C/C=C/C=C(C)/C=C/C=C(C)/C=C/C2=C(C)C(=O)CCC2(C)C)C(C)(C)CCC1=O [Canthaxanthin] | 11.8

Same assay, conditions: Fermented product division, rainbow trout, 3 months, average of 12 fish

SMILES | Content in fish flesh [mg/kg]
CC1=C(/C=C/C(C)=C/C=C/C(C)=C/C=C/C=C(C)/C=C/C=C(C)/C=C/C2=C(C)C(=O)CCC2(C)C)C(C)(C)CCC1=O [Canthaxanthin] | 0.4

Same assay, conditions: Synthetic product division, rainbow trout, 3 months, average of 12 fish

SMILES | Content in fish flesh
CC1=C(/C=C/C(C)=C/C=C/C(C)=C/C=C/C=C(C)/C=C/C=C(C)/C=C/C2=C(C)C(=O)CCC2(C)C)C(C)(C)CCC1=O [Canthaxanthin] | 0.02 or less mg/kg

Same assay, conditions: rainbow trout (Oncorhynchus mykiss), fish flesh, oral, 63.2 mg/kg feed, Fermented product division, rainbow trout, average of 12 fish

SMILES | concentration at 3 months [ng/g]
CC1=C(/C=C/C(C)=C/C=C/C(C)=C/C=C/C=C(C)/C=C/C=C(C)/C=C/C2=C(C)C(=O)[C@@H](O)CC2(C)C)C(C)(C)C[C@H](O)C1=O [Astaxanthin] | 3400

Same assay, conditions: rainbow trout (Oncorhynchus mykiss), fish flesh, oral, 64.6 mg/kg feed, Synthetic product division, rainbow trout, average of 12 fish

SMILES | concentration at 3 months [ng/g]
CC1=C(/C=C/C(C)=C/C=C/C(C)=C/C=C/C=C(C)/C=C/C=C(C)/C=C/C2=C(C)C(=O)[C@@H](O)CC2(C)C)C(C)(C)C[C@H](O)C1=O [Astaxanthin] | 6300

Experiment: Carotenoid content in fish flesh of king salmon by HPLC
Type: in vivo, Oncorhynchus tshawytscha
Settings: Fermented product division, king salmon fish flesh, 3 months
Experimental: In the examples, the quantification of the carotenoid colorant was performed using high performance liquid chromatography (HPLC). Two columns of Wakosil-II 5 SIL-100 φ4.6×250 mm (produced by Wako Pure Chemical Industries, Ltd.) were connected to each other. An n-hexane:tetrahydrofuran:methanol (40:20:1) mixed solution was used as a mobile phase. A constant room temperature and a flow rate of 1.0 ml/min were used. The detection was performed at a wavelength of 470 nm. The feed or fish flesh was milled, and then the colorant was extracted with a tetrahydrofuran:methanol (20:1) mixed solution. The colorant was appropriately diluted with the mobile phase and analyzed by HPLC. 100 king salmons (Oncorhynchus tshawytscha) each weighing about 200 g were cultivated as a test division of being fed with the above-described fermented product, and another 100 king salmons each weighing about 200 g were cultivated as a test division of being fed with the above-described synthetic product. The salmons were fed in satiation in a marine fish pen for 3 months. After the 3 months of cultivating, 15 fish of each test division were sampled and weighed. […] The fish were immediately killed by cutting medulla. […] After the measurement, the fish flesh was frozen for preservation for 1 month. After being thawed, the fish flesh of the fish of each test division was analyzed in terms of the content of each carotenoid compound.

SMILES | Ratio to astaxanthin [%]
CC1=C(/C=C/C(C)=C/C=C/C(C)=C/C=C/C=C(C)/C=C/C=C(C)/C=C/C2=C(C)C(=O)[C@@H](O)CC2(C)C)C(C)(C)C[C@H](O)C1=O [Astaxanthin] | 100
CC1=C(/C=C/C(C)=C/C=C/C(C)=C/C=C/C=C(C)/C=C/C=C(C)/C=C/C2=C(C)C(=O)CCC2(C)C)C(C)(C)CCC1=O [Canthaxanthin] | 6.5

Same assay, conditions: Fermented product division, king salmon, 3 months, flesh frozen 1 month, average of 15 fish

SMILES | Content in fish flesh [mg/kg]
CC1=C(/C=C/C(C)=C/C=C/C(C)=C/C=C/C=C(C)/C=C/C=C(C)/C=C/C2=C(C)C(=O)CCC2(C)C)C(C)(C)CCC1=O [Canthaxanthin] | 0.3

Same assay, conditions: Synthetic product division, king salmon, 3 months, flesh frozen 1 month, average of 15 fish

SMILES | Content in fish flesh
CC1=C(/C=C/C(C)=C/C=C/C(C)=C/C=C/C=C(C)/C=C/C=C(C)/C=C/C2=C(C)C(=O)CCC2(C)C)C(C)(C)CCC1=O [Canthaxanthin] | 0.02 or less mg/kg

Same assay, conditions: king salmon (Oncorhynchus tshawytscha), oral, 70.3 mg/kg feed, Synthetic product division, king salmon, flesh frozen 1 month, average of 15 fish

SMILES | concentration at 3 months [ng/g]
CC1=C(/C=C/C(C)=C/C=C/C(C)=C/C=C/C=C(C)/C=C/C=C(C)/C=C/C2=C(C)C(=O)[C@@H](O)CC2(C)C)C(C)(C)C[C@H](O)C1=O [Astaxanthin] | 7200

Same assay, conditions: king salmon (Oncorhynchus tshawytscha), oral, 72.7 mg/kg feed, Fermented product division, king salmon, flesh frozen 1 month, average of 15 fish

SMILES | concentration at 3 months [ng/g]
CC1=C(/C=C/C(C)=C/C=C/C(C)=C/C=C/C=C(C)/C=C/C=C(C)/C=C/C2=C(C)C(=O)[C@@H](O)CC2(C)C)C(C)(C)C[C@H](O)C1=O [Astaxanthin] | 4600

Experiment: Carotenoid content in fish flesh of Atlantic salmon by HPLC
Type: in vivo, Salmo salar
Settings: Atlantic salmon (Salmo salar), oral, 79.8 mg/kg feed, Fermented product division, Atlantic salmon, flesh frozen 1 month, average of 20 fish
Experimental: In the examples, the quantification of the carotenoid colorant was performed using high performance liquid chromatography (HPLC). Two columns of Wakosil-II 5 SIL-100 φ4.6×250 mm (produced by Wako Pure Chemical Industries, Ltd.) were connected to each other. An n-hexane:tetrahydrofuran:methanol (40:20:1) mixed solution was used as a mobile phase. A constant room temperature and a flow rate of 1.0 ml/min were used. The detection was performed at a wavelength of 470 nm. The feed or fish flesh was milled, and then the colorant was extracted with a tetrahydrofuran:methanol (20:1) mixed solution. The colorant was appropriately diluted with the mobile phase and analyzed by HPLC. 400 Atlantic salmons (Salmo salar) each weighing about 300 g were cultivated as a test division of being fed with the above-described fermented product, and another 400 Atlantic salmons each weighing about 300 g were cultivated as a test division of being fed with the above-described synthetic product. The salmons were fed in satiation in a marine fish pen for 12 months. After the 12 months of cultivating, 20 fish of each test division were landed and weighed. […] The fish were immediately killed by cutting medulla, and the fish flesh was measured in terms of the color tone by a spectrometer. […] After the measurement, the fish flesh was frozen for preservation for 1 month. After being thawed, the fish flesh of the 20 fish of each test division was analyzed in terms of the content of each carotenoid compound.

SMILES | concentration at 12 months [ng/g]
CC1=C(/C=C/C(C)=C/C=C/C(C)=C/C=C/C=C(C)/C=C/C=C(C)/C=C/C2=C(C)C(=O)[C@@H](O)CC2(C)C)C(C)(C)C[C@H](O)C1=O [Astaxanthin] | 4100

Same assay, conditions: Atlantic salmon (Salmo salar), oral, 81.6 mg/kg feed, Synthetic product division, Atlantic salmon, flesh frozen 1 month, average of 20 fish

SMILES | concentration at 12 months [ng/g]
CC1=C(/C=C/C(C)=C/C=C/C(C)=C/C=C/C=C(C)/C=C/C=C(C)/C=C/C2=C(C)C(=O)[C@@H](O)CC2(C)C)C(C)(C)C[C@H](O)C1=O [Astaxanthin] | 6200

Same assay, conditions: Fermented product division, Atlantic salmon fish flesh, 12 months

SMILES | Ratio to astaxanthin [%]
CC1=C(/C=C/C(C)=C/C=C/C(C)=C/C=C/C=C(C)/C=C/C=C(C)/C=C/C2=C(C)C(=O)[C@@H](O)CC2(C)C)C(C)(C)C[C@H](O)C1=O [Astaxanthin] | 100
CC1=C(/C=C/C(C)=C/C=C/C(C)=C/C=C/C=C(C)/C=C/C=C(C)/C=C/C2=C(C)C(=O)CCC2(C)C)C(C)(C)CCC1=O [Canthaxanthin] | 9.8

Same assay, conditions: Fermented product division, Atlantic salmon, 12 months, flesh frozen 1 month, average of 20 fish

SMILES | Content in fish flesh [mg/kg]
CC1=C(/C=C/C(C)=C/C=C/C(C)=C/C=C/C=C(C)/C=C/C=C(C)/C=C/C2=C(C)C(=O)CCC2(C)C)C(C)(C)CCC1=O [Canthaxanthin] | 0.4

Same assay, conditions: Synthetic product division, Atlantic salmon, 12 months, flesh frozen 1 month, average of 20 fish

SMILES | Content in fish flesh
CC1=C(/C=C/C(C)=C/C=C/C(C)=C/C=C/C=C(C)/C=C/C=C(C)/C=C/C2=C(C)C(=O)CCC2(C)C)C(C)(C)CCC1=O [Canthaxanthin] | 0.02 or less mg/kg
